Measurements from patent US7214507B2, “Plant enzymes for bioconversion” (Plant Research International B.V., priority 2001, dated 2007).
Several values for one entry are separate records, joined by “and”; a condition that tells them apart may be missing. Equal values may be shown once.

Experiments:
[1] = test system: microsomal pellet from chicory roots; experiment: Conversion of (+)-valencene by a microsomal pellet of chicory in the presence of NADPH; conditions: 100% = hydroxylation rate of β-selinene, 60 min
Protocol: The enzyme suspension was divided in 1 mL aliquots and incubated with 50 μM (+)-valencene in the presence of a 1 mM NADPH-regenerating system that consisted of 1 mM NADPH, 5 mM glucose-6-phosphate, and 1.2 IU glucose-6-phosphate cehydrogenase. The initial concentration of substrate in each assay was 45 μM and all experiments were done in duplicate. To the blank assays no NADPH regenerating system was added, so that cytochrome P450 enzymes (including the (+)-germacrene A hydroxylase) were not active. After 60 minutes the incubations were stopped by storing them at −20° C. in a freezer.

[2] = test system: NAD(P)+-dependent dehydrogenase(s); experiment: Oxidation of alcohols by 150,000 g supernatant of chicory roots with NAD(P)+; assay type: biochemical, Cichorium intybus L.
Protocol: It was assumed that this β-nootkatol is an intermediate in the formation of nootkatone. For this reason incubations of 100 μM β-nootkatol were performed at pH 10 with NAD(P)^+and a 150,000 g supernatant of chicory roots, such as described for the conversion of (−)-elema-1,3,11(13)-12-ol and germacra-1(10),4,11(13)-trien-12-ol by NADP^+-dependent dehydrogenases by De Kraker et al. (2001). During incubation the added β-nootkatol was converted for more than 60% into nootkatone in the presence of either 1 mM NADP^+ or 1 mM NAD^+. In the absence of these cofactors conversion still amounted to 25%, whereas the boiled enzyme extract gave no conversion of β-nootkatol. At pH 7.5, enzyme activity was slightlylower, whereas a 150,000 g pellet, as expected, yielded 3-fold less dehydrogenase activity than the corresponding supernatant.
To get some more information about the substrate specificity of the dehydrogenase(s) present in chicory roots, incubations with the 150,000 g supernatant were also performed with 100 μM trans,trans-farnesol as substrate (FIG. 19) in the presence of either NAD^+ or NADP^+. Trans,trans-farnesol was converted up to 60% into a mixture of trans,trans-farnesal and cis,trans-farnesal, and small amounts of farnesoic acid were observed as well.

[3] = test system: (+)-germacrene A hydroxylase; experiment: Competitive inhibition of hydroxylation by 50 μM (+)-germacrene A or 50 μM α-cubebene; conditions: amorpha-4,11-diene alcohol (KI 1720), germacrene B alcohol (KI 1700)

C=C(C)[C@@H]1CCC2=CCC[C@@H](C)[C@]2(C)C1 [(+)-valencene]
Relative conversion to nootkatone [1]: 24.4% and 24.4 ± 1.1% | Relative conversion to valencen-12-ol [1]: 2.61% and 2.6 ± 0.1%

CC(C)=CCC/C(C)=C/CC/C(C)=C/CO [Trans,trans-farnesol, trans,trans-farnesol]
Conversion into a mixture of trans,trans-farnesal and cis,trans-farnesal ([2]; 100 μM substrate, NAD+ or NADP+, 150,000 g supernatant): up to 60% | Conversion of farnesol into farnesal, share of maximum enzyme activity ([2]; pH 7.0, maximum at pH 10): 30%

CC(C)=C1C/C=C(\C)CC/C=C(\C)CC1 [germacrene B]
Inhibition (%) ± SD, Germacrene A, second product ([3]; 50 μM (+)-germacrene A added): 100.0% | Inhibition (%) ± SD, α-Cubebene, second product ([3]; 50 μM α-cubebene added): 27.3 ± 10%

C=C(C)[C@@H]1CCC2=C[C@@H](O)C[C@@H](C)[C@]2(C)C1 [β-nootkatol]
Conversion into nootkatone ([2]; 100 μM substrate, pH 10, 1 mM NADP+ or 1 mM NAD+, 150,000 g supernatant): more than 60% | Conversion into nootkatone in the absence of cofactors ([2]; 100 μM substrate, pH 10, no NAD(P)+): 25%
